In patent US11685739B2, “High penetration drugs and their compositions thereof for treatment of Parkinson diseases” (TECHFIELDS PHARMA CO., LTD, priority 2013, dated 2023):
Like-named read-outs stand apart in the source and are kept apart here.

How the values were obtained:
[1] = tested on: motor function deficits induced by 6-OHDA in Parkinson's disease (PD) model; test: Rotarod test in rats with 6-OHDA lesion, Parkinson's disease (PD) model; format: in vivo, Sprague-Dawley rats; conditions: Example 31; L-DOPA orally, pro-drug transdermally
Description: Test subjects (Sprague-Dawley rats) were prepared, grouped, and tested following the protocol below: • 1. 200 Sprague-Dawley rats (male, 200-230 g) underwent brain stereotaxic surgery after 1 week acclamation in animal facility; • 2. After anesthesia, a bur hole (1 mm in diameter) was made on skull on the left side with a motor drill based on the coordinates: AP +0.5 mm, ML −2.8 mm, DV 6.0 mm relative to Bregma; • 3. 6-OHDA (20 μg at 5 mg/mL) or sterile saline was injected into the left striatum with a microsyringe fitted with a 26-gauge steel cannula. The chemical caused the retrograde neurodegeneration in the distal substantia nigra and impairs dopamine transmission in the nigro-striatal pathway, which eventually led to functional disturbance of motor activities; • 4. Apomorphine and classic rotation test was carried out to screen animals at the end of week 3 post 6-OHDA treatment. Animals that matched lesion type and apomorphine-induced rotational scores were allotted to 11 groups; and • 5. Rats were divided into 11 groups (n=12), each group was applied with the drug(s) at the doses specified in Table 2:
• 6. Dose Formulations • (1) L-DOPA in water (3 mg/mL) was the positive control solution for group 1 (orally for group 1, transdermally for groups 2-11). The volume of administration was 2 mL/kg. Vehicle solution (negative control solution for group 2) was 30% ethanol (v/v). The volume of administration was 1286 μL/kg. Other test solutions (groups 3-11) were freshly prepared every day. • (2) Preparation method of test solutions for groups 3-5: 50.33 mg of Drug A was dissolved in 10 mL of 30% ethanol(v/v). This solution was the stock solution[(2)a]. • a. The test solution for group 5 (high dose group) of Drug A: The stock solution [(2)a] was the test solution for Group 5. The volume of administration was 1286 μL/kg. • b. The test solution for group 4 (moderate dose group) of Drug A: 3.00 mL of the stock solution [(2)a] was diluted to final volume 9.00 mL with 30% ethanol(v/v). This solution was the test solution for Group 4. The volume of administration was 1286 μL/kg. • c. […]

[2] = human, pH 7.4
[3] = tested on: motor function deficits induced by 6-OHDA in Parkinson's disease (PD) model; test: Rotarod test in rats with 6-OHDA lesion, Parkinson's disease (PD) model; format: in vivo, Sprague-Dawley rats; conditions: Example 31; 0.67 mg/kg transdermal (group 3) vs 2 mg and 6 mg/kg (groups 4 and 5)

## CC(C)OC(=O)[C@@H](N)Cc1ccc(OC(=O)c2ccccc2)c(OC(=O)c2ccccc2)c1.Cl [Compound-11, (S)-4-(2-amino-3-isopropoxy-3-oxopropyl)-1,2-phenylene dibenzoate hydrochloride]
[1]
  Side effects (dyskinesia at peak dose, end-of-dose deterioration of function etc.): avoided dyskinesia at peak dose, and end-of-dose deterioration of function
[2]; 1 h
  The cumulative amount of test compounds: 0.58 mg
[2]; 2 h
  The cumulative amount of test compounds: 1.15 mg
[2]; 4 h
  The cumulative amount of test compounds: 2.33 mg
[2]; 8 h
  The cumulative amount of test compounds: 4.71 mg
[3]
  Efficacy of low dose compared with moderate and high dose groups: much higher than that of the moderate and high dose groups
